From US20210137951A1, “DRUG COMBINATION FOR TREATMENT OF AMYOTROPHIC LATERAL SCLEROSIS, PREPARATION METHOD AND USE THEREOF” (priority 2018, published 2021)

How the values were obtained:
[1] = system: hSOD1-G93A transgenic mice; assay type: in vivo; conditions: for Falling time (s) On 1st day of gavage / Falling time (s) On 7th day of gavage / Falling time (s) On 14th day of gavage / Falling time (s) On 21th day of gavage / Falling time (s) On 28th day of gavage: intragastric once a day, 40 mg/kg (positive control 2 mg/kg), rod 12 r/min, cut-off 10 min; for Falling time (s) On 1st day of gavage: 1 h after 1st administration; for Falling time (s) On 7th day of gavage: 1 h after 7th administration; for Falling time (s) On 14th day of gavage: 1 h after 14th administration; for Falling time (s) On 21th day of gavage: 1 h after 21st administration; for Falling time (s) On 28th day of gavage: 1 h after 28th administration; for Effect on delaying the progression of amyotrophic lateral sclerosis (in words): judged from fall time and mice surviving more than 120 days
Method: (§1) 10 two-months wild-type BALB/C mice were used as the normal control group, and 110 two-months hSOD1-G93A transgenic mice were randomly divided into 11 groups, 10 mice for each group, and 11 groups are blank group, positive control group, the drug compositions 1-3 of the present invention groups, and the control 1-6 groups, respectively.
All mice were adaptively fed for three weeks, and a rotating rod experiment was performed once a week. The diameter of the rotating rod was 3.5 cm, and its rotating speed was 12 r/min. Experiment on each mouse was carried out three times in parallel, with a 5 min interval. The longest time recorded was the fall time of mice, the mice with a fall time of shorter than 7 min in the third rotating rod experiment were excluded, and then mice received drugs by intragastric administration, in which the normal control group and the blank group were given physiological saline, while the positive control group, the drug combinations 1-3 groups, and the control groups 1-6 were given corresponding drugs, with the volume of 0.5 ml. Amongst, the gavage dose of positive control group was 2 mg/kg body weight, and the gavage dose of drug combinations 1-3 and controls 1-6 groups was both 40 mg/kg body weight. For all of groups, drugs were given once a day for 4 weeks. After 1 h of the 1st, 7th, 14th, 21st, and 28th intragastric administrations, a stick-rotation experiment was performed. In one experiment, each mouse was tested 3 times at interval of 5 minutes, and the longest time recorded was the fall time of mice. […] After the 28th gavage, the mice were continually fed, and the number of mice surviving for more than 120 days in each group was recorded, in which if they were placed in the supine position, the mice could not turn to the prone position within 30 S, and thus they were determined as dead.

[2] = system: hSOD1-G93A transgenic mice; experiment: Number of mice surviving more than 120 days; assay type: in vivo; conditions: intragastric once a day for 4 weeks, 40 mg/kg (positive control 2 mg/kg), 8-9 mice per group
Method: as §1
All mice were adaptively fed for three weeks, and a rotating rod experiment was performed once a week. The diameter of the rotating rod was 3.5 cm, and its rotating speed was 12 r/min. Experiment on each mouse was carried out three times in parallel, with a 5 min interval. The longest time recorded was the fall time of mice, the mice with a fall time of shorter than 7 min in the third rotating rod experiment were excluded, and then mice received drugs by intragastric administration, in which the normal control group and the blank group were given physiological saline, while the positive control group, the drug combinations 1-3 groups, and the control groups 1-6 were given corresponding drugs, with the volume of 0.5 ml. Amongst, the gavage dose of positive control group was 2 mg/kg body weight, and the gavage dose of drug combinations 1-3 and controls 1-6 groups was both 40 mg/kg body weight. […] In one experiment, each mouse was tested 3 times at interval of 5 minutes, and the longest time recorded was the fall time of mice. […]

Row | Compound | Falling time (s) On 1st day of gavage [1] | Falling time (s) On 7th day of gavage [1] | Falling time (s) On 14th day of gavage [1] | Falling time (s) On 21th day of gavage [1] | Falling time (s) On 28th day of gavage [1] | Indexes for the fall time and the number of mice surviving more than 120 days, comparison between groups (in words) ([1]; gavage 4 weeks) | Effect on delaying the progression of amyotrophic lateral sclerosis (in words) ([1]; gavage 4 weeks) | Survival numbers (number of mice surviving for more than 120 days) [2]
1 | Nc1nc2ccc(OC(F)(F)F)cc2s1 [Positive control, Riluzole] | 479.2 ± 31.8 s | 389.5 ± 27.7 s | 259.3 ± 29.5 s | 187.4 ± 17.5 s | 129.3 ± 15.4 s | – | – | –
2 | creatine phosphate sodium [Control 6] | 475.8 ± 22.8 s | 284.6 ± 19.3 s | 155.8 ± 24.8 s | 71.3 ± 12.3 s | 44.78 ± 11.3 s | roughly equivalent to those in the blank group | don't have obvious effect on delaying the progression of this disease | 2
3 | O=C(/C=C/c1ccc(O)c(O)c1)O[C@@H]1C[C@](O)(C(=O)O)C[C@@H](O)[C@H]1O [Control 1, 3-O-caffeoylquinic acid] | 468.9 ± 26.1 s | 315.3 ± 27.6 s | 221.5 ± 22.8 s | 127.8 ± 19.5 s | 89.1 ± 18.5 s | – | showed to some extent the effect on delaying the progression of amyotrophic lateral sclerosis | 3
